Data: US20220218852A1, “NOVEL RADIOLABELLED CXCR4-TARGETING COMPOUNDS FOR DIAGNOSIS AND THERAPY” (PROVINCIAL HEALTH SERVICES AUTHORITY, priority 2019, published 2022)
Read-outs that look alike come from different tables or passages of the source. Positions of bridges follow the written chain, without caps; N, C: chain ends. Non-standard residues stand in square brackets, D forms with d. Residues, ends and D or L forms follow the SMILES beside them. Groups on a side chain read outwards from the residue. *: point of attachment. DOTA = O=C(O)CN1CCN(CC(=O)O)CCN(CC(=O)*)CCN(CC(=O)O)CC1; 2Nal = N[C@@H](Cc1ccc2ccccc2c1)C(=O)O; Lys(iPr) = CC(C)NCCCC[C@H](N)C(=O)O

Assays:
[1] = Biodistribution in Daudi tumor-bearing mice; format: in vivo; details: male, NOD.Cg-Rag1^tm1MomII2rg^tm1Wjl/SzJ (NRG), mouse, iv, total radioactivity, Daudi xenograft bearing mice
Method: (§1) For Daudi, Z138, GRANTA519 and Jeko1 xenografts, male NOD.Cg-Rag1^tm1MomII2rg^tm1Wjl/SzJ (NRG) mice were subcutaneously inoculated on the left flank with 5×10^6 cells (100 μL; 1:1 ratio of PBS/Matrigel) and tumors were grown to a size of 200-500 mm^3. For PC-3 xenografts, male NOD.Cg-Rag1^tm1MomII2rg^tm1Wjl/SzJ (NRG) mice were subcutaneously inoculated on the left flank with 5×10^6 PC-3 cells (100 μL; 1:1 ratio of PBS/Matrigel) and tumors were grown to a size of 200-400 mm^3.
(§2) The mice were euthanized via CO2 inhalation while anesthetized with isoflurane. Tissues were harvested, washed in PBS, blotted dry, weighed, and measured on a Hidex AMG Automatic Gamma Counter.

[2] = tested on: Daudi Burkitt's lymphoma xenografts; assay: Biodistribution in Daudi tumor-bearing mice; format: in vivo; details: Daudi xenograft bearing mice
Method: as §1, §2

[3] = 1 h blocked (7.5 μg LY2510924 i.p. 15 min before tracer)

tissue uptake at 1 h ([1]; Daudi tumour, 1 h, read-out: Biodistribution Daudi (tumour)): 9.07 %ID/g | tissue uptake at 1 h ([1]; Daudi tumour, 1 h blocked (7.5 μg LY2510924 i.p. 15 min before tracer), read-out: Biodistribution Daudi (tumour)): 0.59 %ID/g | tissue uptake at 2 h ([1]; Daudi tumour, read-out: Biodistribution Daudi (tumour)): 8.01 %ID/g | tissue uptake at 1 h ([1]; adrenals, 1 h, read-out: Biodistribution Adrenals): 0.35 %ID/g | tissue uptake at 1 h ([1]; adrenals, 1 h blocked (7.5 μg LY2510924 i.p. 15 min before tracer), read-out: Biodistribution Adrenals): 0.35 %ID/g | tissue uptake at 2 h ([1]; adrenals, read-out: Biodistribution Adrenals): 0.27 %ID/g | tissue uptake at 1 h ([1]; blood, 1 h, read-out: Biodistribution Blood): 0.42 %ID/g | tissue uptake at 1 h ([1]; blood, 1 h blocked (7.5 μg LY2510924 i.p. 15 min before tracer), read-out: Biodistribution Blood): 0.65 %ID/g | tissue uptake at 2 h ([1]; blood, read-out: Biodistribution Blood): 0.08 %ID/g | tissue uptake at 1 h ([1]; bone, 1 h, read-out: Biodistribution Bone): 0.17 %ID/g | tissue uptake at 1 h ([1]; bone, 1 h blocked (7.5 μg LY2510924 i.p. 15 min before tracer), read-out: Biodistribution Bone): 0.15 %ID/g | tissue uptake at 2 h ([1]; bone, read-out: Biodistribution Bone): 0.05 %ID/g | tissue uptake at 1 h ([1]; brain, 1 h, read-out: Biodistribution Brain): 0.01 %ID/g | tissue uptake at 1 h ([1]; brain, 1 h blocked (7.5 μg LY2510924 i.p. 15 min before tracer), read-out: Biodistribution Brain): 0.02 %ID/g | tissue uptake at 2 h ([1]; brain, read-out: Biodistribution Brain): 0.01 %ID/g | tissue uptake at 1 h ([1]; fat, 1 h, read-out: Biodistribution Fat): 0.06 %ID/g | tissue uptake at 1 h ([1]; fat, 1 h blocked (7.5 μg LY2510924 i.p. 15 min before tracer), read-out: Biodistribution Fat): 0.12 %ID/g | tissue uptake at 2 h ([1]; fat, read-out: Biodistribution Fat): 0.01 %ID/g | tissue uptake at 1 h ([1]; heart, 1 h, read-out: Biodistribution Heart): 0.15 %ID/g | tissue uptake at 1 h ([1]; heart, 1 h blocked (7.5 μg LY2510924 i.p. 15 min before tracer), read-out: Biodistribution Heart): 0.22 %ID/g | tissue uptake at 2 h ([1]; heart, read-out: Biodistribution Heart): 0.05 %ID/g | tissue uptake at 1 h ([1]; intestine, 1 h, read-out: Biodistribution Intestine): 0.21 %ID/g | tissue uptake at 1 h ([1]; intestine, 1 h blocked (7.5 μg LY2510924 i.p. 15 min before tracer), read-out: Biodistribution Intestine): 0.37 %ID/g | tissue uptake at 2 h ([1]; intestine, read-out: Biodistribution Intestine): 0.25 %ID/g | tissue uptake at 1 h ([1]; kidney, 1 h, read-out: Biodistribution Kidney): 3.58 %ID/g | tissue uptake at 1 h ([1]; kidney, 1 h blocked (7.5 μg LY2510924 i.p. 15 min before tracer), read-out: Biodistribution Kidney): 5.92 %ID/g | tissue uptake at 2 h ([1]; kidney, read-out: Biodistribution Kidney): 3.02 %ID/g | tissue uptake at 1 h ([1]; liver, 1 h, read-out: Biodistribution Liver): 0.58 %ID/g | tissue uptake at 1 h ([1]; liver, 1 h blocked (7.5 μg LY2510924 i.p. 15 min before tracer), read-out: Biodistribution Liver): 0.44 %ID/g | tissue uptake at 2 h ([1]; liver, read-out: Biodistribution Liver): 0.51 %ID/g | tissue uptake at 1 h ([1]; lung, 1 h, read-out: Biodistribution Lung): 0.51 %ID/g | tissue uptake at 1 h ([1]; lung, 1 h blocked (7.5 μg LY2510924 i.p. 15 min before tracer), read-out: Biodistribution Lung): 0.71 %ID/g | tissue uptake at 2 h ([1]; lung, read-out: Biodistribution Lung): 0.22 %ID/g | tissue uptake at 1 h ([1]; muscle, 1 h, read-out: Biodistribution Muscle): 0.08 %ID/g | tissue uptake at 1 h ([1]; muscle, 1 h blocked (7.5 μg LY2510924 i.p. 15 min before tracer), read-out: Biodistribution Muscle): 0.13 %ID/g | tissue uptake at 2 h ([1]; muscle, read-out: Biodistribution Muscle): 0.02 %ID/g | tissue uptake at 1 h ([1]; pancreas, 1 h, read-out: Biodistribution Pancreas): 0.11 %ID/g | tissue uptake at 1 h ([1]; pancreas, 1 h blocked (7.5 μg LY2510924 i.p. 15 min before tracer), read-out: Biodistribution Pancreas): 0.16 %ID/g | tissue uptake at 2 h ([1]; pancreas, read-out: Biodistribution Pancreas): 0.04 %ID/g | tissue uptake at 1 h ([1]; spleen, 1 h, read-out: Biodistribution Spleen): 0.49 %ID/g | tissue uptake at 1 h ([1]; spleen, 1 h blocked (7.5 μg LY2510924 i.p. 15 min before tracer), read-out: Biodistribution Spleen): 0.3 %ID/g | tissue uptake at 2 h ([1]; spleen, read-out: Biodistribution Spleen): 0.21 %ID/g | tissue uptake at 1 h ([1]; stomach, 1 h, read-out: Biodistribution Stomach): 0.05 %ID/g | tissue uptake at 1 h ([1]; stomach, 1 h blocked (7.5 μg LY2510924 i.p. 15 min before tracer), read-out: Biodistribution Stomach): 0.24 %ID/g | tissue uptake at 2 h ([1]; stomach, read-out: Biodistribution Stomach): 0.05 %ID/g | tissue uptake at 1 h ([1]; testes, 1 h, read-out: Biodistribution Testes): 0.15 %ID/g | tissue uptake at 1 h ([1]; testes, 1 h blocked (7.5 μg LY2510924 i.p. 15 min before tracer), read-out: Biodistribution Testes): 0.2 %ID/g | tissue uptake at 2 h ([1]; testes, read-out: Biodistribution Testes): 0.05 %ID/g | Ratio Tumour:Blood ([2]; 1 h): 22.78 | Ratio Tumour:Bone ([2]; 1 h): 54.57 | Ratio Tumour:Liver ([2]; 1 h): 15.68 | Ratio Tumour:Lung ([2]; 1 h): 18.12 | Ratio Tumour:Muscle ([2]; 1 h): 125.40 | Ratio Tumour:Spleen ([2]; 1 h): 18.55 | Ratio Tumour:Blood [2, 3]: 0.90 | Ratio Tumour:Bone [2, 3]: 3.88 | Ratio Tumour:Liver [2, 3]: 1.34 | Ratio Tumour:Lung [2, 3]: 0.82 | Ratio Tumour:Muscle [2, 3]: 4.49 | Ratio Tumour:Spleen [2, 3]: 1.96 | Ratio Tumour:Blood ([2]; 2 h): 113.17 | Ratio Tumour:Bone ([2]; 2 h): 189.39 | Ratio Tumour:Liver ([2]; 2 h): 15.57 | Ratio Tumour:Lung ([2]; 2 h): 37.40 | Ratio Tumour:Muscle ([2]; 2 h): 346.93 | Ratio Tumour:Spleen ([2]; 2 h): 41.58
SMILES: CC(C)NCCCC[C@@H]1NC(=O)[C@H](Cc2ccc(O)cc2)NC(=O)[C@H](Cc2ccccc2)NC(=O)CC[C@H](C(=O)N[C@@H](CCCCNC(C)C)C(=O)N[C@@H](CCCCNC(=O)[C@@H](CCC(=O)O)NC(=O)[C@@H](CCC(=O)O)NC(=O)[C@@H](CCC(=O)O)NC(=O)CN2CCN(CC(=O)O)CCN(CC(=O)O)CCN(CC(=O)O)CC2)C(N)=O)NC(=O)CNC(=O)[C@H](Cc2ccc3ccccc3c2)NC(=O)[C@@H](CCCNC(=N)N)NC1=O [[^68Ga]Ga-BL20, metal not drawn] (FY[Lys(iPr)][dR][2Nal]G[dE][Lys(iPr)]K([dE-dE-dE-DOTA])-NH2; lactam N-7)
